Data on one compound can be found in publication PMC5520929, “Bilirubin neurotoxicity is associated with proteasome inhibition” (Cell Death & Disease, 2017).

pIC50: −log10 of the molar value.

For this test, the target named is T1, 20S proteasome chymotrypsin-like (CT-like) peptidase (Homo sapiens, UniProt P28074).
T1 construct: gene PSMB5; purified human 20S proteasomes; with 20S proteasome
T1 sequence (P28074 60-263): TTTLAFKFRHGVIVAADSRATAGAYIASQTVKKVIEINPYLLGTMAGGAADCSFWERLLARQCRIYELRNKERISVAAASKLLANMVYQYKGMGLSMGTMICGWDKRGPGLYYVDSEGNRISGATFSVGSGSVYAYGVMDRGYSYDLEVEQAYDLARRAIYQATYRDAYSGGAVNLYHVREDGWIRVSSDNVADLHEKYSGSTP
The experiment in a line: fluorogenic Suc-LLVY-AMC peptidase assay on purified human. It counts as biochemical.

Usually pIC50 stands for the negative decadic logarithm of the IC50, by convention in mol/L. Low readings indicate a large IC50, high ones a small IC50. As to `C=CC1=C(C)/C(=C/c2[nH]c(Cc3[nH]c(/C=C4\NC(=O)C(C)=C4C=C)c(C)c3CCC(=O)O)c(CCC(=O)O)c2C)NC1=O` [Bil, bilirubin], the pIC50 was roughly 4.70.
